In ChEMBL document CHEMBL1221189, “Structural basis for macrolactonization by the pikromycin thioesterase” (Nat Chem Biol, 2006):
Active and inactive are the calls of the source. No cut-off for these calls is given here.

Legend:
[1] = tested on: Streptomyces venezuelae; assay: Inactivation of pikromycin thioesterase in Streptomyces venezuelae assessed as rate of enzymatic hydrolysis of p-nitrophenylpropionate at 2 mM after 6 hrs
[2] = tested on: Streptomyces venezuelae; assay: Inactivation of pikromycin thioesterase in Streptomyces venezuelae assessed as rate of enzymatic hydrolysis of p-nitrophenylpropionate at 2 mM after 50 mins
[3] = tested on: Streptomyces venezuelae; assay: Inactivation of pikromycin thioesterase in Streptomyces venezuelae assessed as rate of enzymatic hydrolysis of p-nitrophenylpropionate at 2 mM; conditions: TDE = time-dependent effect
[4] = tested on: Streptomyces venezuelae; assay: Inactivation of pikromycin thioesterase in Streptomyces venezuelae assessed as rate of enzymatic hydrolysis of p-nitrophenylpropionate after 8 hrs

| Structure (SMILES) | Activity [1] | fold change (FC) [2] | Activity [3] | Activity [4] |
| --- | --- | --- | --- | --- |
| C[C@@H](CO)C[C@H](C)[C@H](O)[C@@H](C)C(=O)CP(=O)(Oc1ccccc1)Oc1ccccc1 | Active | 2 | tde |  |
| CC[C@H](O)[C@@H](C)C(=O)CP(=O)(Oc1ccccc1)Oc1ccccc1 |  |  |  | Active |
